Test results taken from US20240315237A1, “METHODS FOR SINGLE CELL ANALYSIS OF GLUCOSE INTERNALIZATION” (ABBOTT DIABETES CARE INC., priority 2023, published 2024).
Values joined by “and” are separate entries in the source; they are usually repeats but may differ in a detail not shown here. Equal entries are not always repeated. “Also recorded” adds a separate entry of the source.

How the values were obtained:
Assay type in all cases: cell-based
[1] = biological target: T1, GLUT1 (Homo sapiens, UniProt P11166); assay: small molecule GLUT1 inhibition study of tracer uptake (flow cytometry)
T1 construct: Adult human RBCs exclusively express the glucose transporter 1 (GLUT1) encoded by the SLC2A1 gene; endogenous in cells; host or cells: human erythrocytes (RBCs) isolated from blood
T1 sequence (P11166 1-492): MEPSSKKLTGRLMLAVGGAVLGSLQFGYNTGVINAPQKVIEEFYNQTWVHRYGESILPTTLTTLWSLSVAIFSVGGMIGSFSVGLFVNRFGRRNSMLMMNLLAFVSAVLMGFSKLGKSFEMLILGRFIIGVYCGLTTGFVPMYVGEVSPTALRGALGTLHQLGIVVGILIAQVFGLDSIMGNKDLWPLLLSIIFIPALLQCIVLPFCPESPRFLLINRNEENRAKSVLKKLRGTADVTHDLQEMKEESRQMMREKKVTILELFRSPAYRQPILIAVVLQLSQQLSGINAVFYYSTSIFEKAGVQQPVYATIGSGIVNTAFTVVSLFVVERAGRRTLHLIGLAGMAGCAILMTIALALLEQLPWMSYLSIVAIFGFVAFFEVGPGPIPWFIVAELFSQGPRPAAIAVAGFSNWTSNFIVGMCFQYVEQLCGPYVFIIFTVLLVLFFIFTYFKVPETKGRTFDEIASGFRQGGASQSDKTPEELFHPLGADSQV
Protocol: To test the tracer specificity, a competition experiment was first performed on the flow cytometer under identical settings as were used in the membrane integrity experiments above. Aliquots of solutions of RBCs containing KCl solution and 20 μM of a given glucose tracer were incubated for 60 minutes at 37° C. shaker at 400 RPM containing a selected concentration of unlabeled D-glucose (i.e., 0.00, 0.01, 0.50, 1.00, 5.00, 25.00, 50.00 or 100.00 mM). After incubation, cells were washed one time in 125 KCl solution containing the selected concentration of D-glucose and promptly measured on the flow cytometer using the conditions described above. Next, GLUT1-specific transport was further tested by preparing washed RBC solutions as described above and then incubating the RBC solutions with one of the GLUT1 inhibitors on a 37° C. shaker at 400 RPM for one hour of incubation. […] Samples were then spun down, and supernatant was removed and fresh inhibitor/KCl solution was added and inverted. Glucose tracers were then added at working concentrations of 20 μM and incubated for 30 minutes on a 37° C. shaker at 400 RPM. After 30 minutes, cells were quickly spun down again using the protocol described in herein and supernatant was removed and replaced with fresh inhibitor/KCl solution before immediately being placed on the flow cytometer. […]

[2] = biological target: T1, GLUT1; assay: glucose competition study with unlabeled D-glucose (flow cytometry); details: 20 μM tracer; for mean intensity maintained, % of the mean intensity of the control sample: 100 mM unlabeled D-glucose (5000× tracer), 60 min, 37° C., human RBCs
Protocol: To test the tracer specificity, a competition experiment was first performed on the flow cytometer under identical settings as were used in the membrane integrity experiments above. Aliquots of solutions of RBCs containing KCl solution and 20 μM of a given glucose tracer were incubated for 60 minutes at 37° C. shaker at 400 RPM containing a selected concentration of unlabeled D-glucose (i.e., 0.00, 0.01, 0.50, 1.00, 5.00, 25.00, 50.00 or 100.00 mM). After incubation, cells were washed one time in 125 KCl solution containing the selected concentration of D-glucose and promptly measured on the flow cytometer using the conditions described above. Next, GLUT1-specific transport was further tested by preparing washed RBC solutions as described above and then incubating the RBC solutions with one of the GLUT1 inhibitors on a 37° C. shaker at 400 RPM for one hour of incubation. […] Samples were then spun down, and supernatant was removed and fresh inhibitor/KCl solution was added and inverted. Glucose tracers were then added at working concentrations of 20 μM and incubated for 30 minutes on a 37° C. shaker at 400 RPM. After 30 minutes, cells were quickly spun down again using the protocol described in herein and supernatant was removed and replaced with fresh inhibitor/KCl solution before immediately being placed on the flow cytometer. Each sample was run on the flow cytometer using identical settings described above.

[3] = tested on: human erythrocytes; assay: single cell 2-NBDG uptake in anchored RBCs (microfluidic perfusion, confocal microscopy)
Protocol: Sample preparation. Human whole blood from an individual donor was drawn into sodium heparin (NaHep) and shipped cold. Samples were received directly from BioIVT LLC and placed into 4° C. refrigeration until prepared for experimentation. Samples removed from refrigeration for experimentation purposes were first inverted for three minutes and then 200 μL were drawn from the collection tubes and placed into a fresh 1.5 mL centrifuge tube containing 1 mL of 125 mM KCl solution. Samples were gently inverted 5-10× and then placed in a 4° C. centrifuge and spun using a modified RBC isolation protocol aimed at reducing clotting of whole blood and deformation of RBCs (Hanson et al., American Journal of Physiology Heart and Circulatory Physiology, 2008. 295(2): p. H786-H793). Centrifugation-based separation of RBCs was performed at 2000 RPM (490×g) for 5 minutes. After centrifugation, supernatant was removed along with buffy coat (white blood cells, etc.) using a pipette and a fresh 1 mL of KCl solution was then added. This process was repeated 3× to isolate RBCs and diminish intracellular glucose.
Samples were then vortexed gently and placed on a 37° C. shaker at 400 RPM for one hour for incubation. Due to the high expression of glycophorin A+B in erythrocytes, it was a simple membrane target for antibody anchoring of cells to the microfluidic imaging surface using the biotin binding Neutravidin™ system.
Microfluidic Perfusion. An ONIX microfluidic perfusion system from CellAsic (Millipore Sigma) was used for flow-based experiments. The system comprises a perfusion pump system, which connects to a PC for multidimensional control of flow rates (converted from applied kPa, i.e., 27.6 kPA=20 μL/hr) and duration. The plates used for experiments herein are model Y04C. This plate system has a #1.5 glass bottom for imaging and contains four separate channels which have an observation region where fluid switching can occur homogenously. Plates were removed from vacuum packaging the day of experimentation and storage PBS was removed using a vacuum system. Each well was then filled with 400 μL of KCl solution and placed on the perfusion system. KCl solution was flowed through each channel and well (except for the waste well #7) at 20 μL/hr for 20 minutes to flush out any storage PBS. Next, one of the wells (#1 for each channel) was filled with 100 μL 0.1 mg/mL Pierce™ biotinylated-bovine serum albumin (B-BSA, Cat #29130, Thermo Scientific) in 125 mM KCl solution and this was then flowed through for 15 minutes total, then allowed to incubate for 15 minutes at room temperature. After the B-BSA was deposited on the glass surface of the channels, a 0.1 mg/mL solution of Neutravidin (Cat #31000, Thermo Scientific) in KCl solution was flowed for 15 minutes at room temperature to build a surface anchoring system for red blood cells.
For uptake measurements, cells incubated with biotinylated-α-glycophorin A+B antibodies were diluted 1:1 in KCl solution within well #8 and perfused using 20 μL/hr in combination with well #5 containing KCl solution only at 20 μL/hr for 10 seconds. Flowed cells were then allowed to incubate with the cell anchoring system described above for three minutes. […] Immediately after this time point, well #2 was stopped, and KCl solution only from well #5 was perfused at 20 μL/hr to wash away tracer (“washout”).
For uptake measurements, the 488 nm laser was configured for excitation to a power level of 0.07% of total laser voltage (i.e., 3.5 μW before the objective) with a pixel dwell time of 0.24 μs. For detection, the detector bandwidth was set to admit wavelengths 520 nm to 560 nm with a master gain of 500 V and digital gain set to 1×. The field of view was 1944 pixels×1944 pixels (or 192.8 μm×192.8 μm) which led to a total frame time of 989.11 ms for a single acquisition. With these settings and using the 40× magnification, the pixel size was ˜0.1 μm×˜0.1 μm.

[4] = 5 mM 2-NBDG, all cells, height corrected, FIG. 16B
[5] = normalized to the all donor mean, N=45, FIG. 18

Row | Molecule | inhibition of tracer uptake by GLUT1 inhibitors, compared with other tracers ([1]; Phloretin, Cytochalasin B, WZB117, STF-31, BAY-876, 20 μM tracer, FIG. 1B) | specificity for the GLUT1 transporter ([1]; human RBCs, inhibitor panel and glucose competition experiments) | competition with unlabeled D-glucose among three tracers ([2]; 0.00-100.00 mM D-glucose, FIG. 9C) | mean intensity maintained, % of the mean intensity of the control sample [2] [%] | time to saturation point of intracellular 2-NBDG intensity ([3]; 5 mM 2-NBDG, 20 μL/hr, FIG. 11B) | mean intracellular glucose fraction, typical patient with higher fraction ([3]; 5 mM 2-NBDG, 1802 cells, cell heights ≥2.1 μm, mean±1 SD, FIG. 14B) | mean intracellular glucose fraction, typical patient with lower fraction ([3]; 5 mM 2-NBDG, 2343 cells, cell heights ≥2.1 μm, mean±1 SD, FIG. 14A) | mean intracellular percentage for this patient blood sample ([3]; 5 mM 2-NBDG, FIG. 11C) [%] | intracellular glucose percentage, Black patients ([3]; 5 mM 2-NBDG, FIG. 16A, n=20, mean±1 SD) | intracellular glucose percentage, Caucasian/Hispanic patients ([3]; 5 mM 2-NBDG, FIG. 16A, n=25, mean±1 SD) | mean (+/−SD) uptake normalized to overall mean, Black ancestry ([3]; 5 mM 2-NBDG, FIG. 17) [%+/−39%] | mean (+/−SD) uptake normalized to overall mean, White ancestry ([3]; 5 mM 2-NBDG, FIG. 17) [%+/−36%] | corrected intracellular glucose percentage (HCIG), Black patients [3, 4] | corrected intracellular glucose percentage (HCIG), Caucasian/Hispanic patients [3, 4] | stability of saturating intracellular level (plateau) ([3]; extended duration measurements, FIGS. 13A-13B) | mean normalized intracellular glucose, Black sub-group [3, 5] | mean normalized intracellular glucose, Hispanic/Caucasian sub-group [3, 5]
1 | O=C[C@H](Nc1ccc([N+](=O)[O-])c2nonc12)[C@@H](O)[C@H](O)[C@H](O)CO [2-NBDG, 2-deoxy-2-[(7-nitro-2,1,3-benzoxadiazol-4-yl)amino]-D-glucose] | most inhibition; also recorded: consistently the most inhibited | highest specificity; also recorded: GLUT1 specific | highest competition | 1.4 | within several seconds | 6.7% and 6.7%±2.3% | 4.6% and 4.6%±1.6% | 4.9 | 0.057±0.018 | 0.044±0.018 | 118 | 86 | 0.060±0.020 | 0.044±0.018 | stable for several hours | 1.18 | 0.86
2 | D-Glucose-Silicon rhodamine [D-glucose-SIR] |  |  |  | 41.9 |  |  |  |  |  |  |  |  |  |  |  |  | 
3 | 6-deoxy-2-[(7-nitro-2,1,3-benzoxadiazol-4-yl)amino]-D-glucose [6-NBDG] |  |  |  | 13.8 |  |  |  |  |  |  |  |  |  |  |  |  | 
